{"source": "paper PMC5369982", "about": "“Near infrared fluorescent imaging of choline kinase alpha expression and inhibition in breast tumors” (Oncotarget, 2017)", "key": {"MDA-MB-231 tumors": {"test_system": "MDA-MB-231 tumors", "experiment": "Pharmacodynamic indicators of ChoKα inhibition (MRI/MRS)", "type": "in vivo, mouse", "conditions": "5 days i.p., MN58b 2 mg/kg, JAS239 4 mg/kg; for Change in tumor tCho compared to control (MRS) / Tumor volume between pre- and post-treatment scans (MRI): day 7; for PUFA resonances (measure of tumor apoptosis): trend not significant", "protocol": "Mice bearing subcutaneous 4175-Luc+ or MB-MDA-231 tumors (∼300 μL) underwent pre-treatment MRS scans in a 9.4 T horizontal bore magnet equipped with 40 G/cm gradients interfaced to an Agilent Direct-Drive console (Agilent) operating vnmrj 2.3.C software. Multi-slice gradient and spin echo images were used for tumor localization. T2-weighted spin echo anatomical images were acquired using a spin echo multi-slice (SEMS) pulse sequence (TR = 1000 ms, TE = 10 ms, number of slices = 20, field of view = 20 × 20 mm^2, slice thickness = 1 mm, NT = 1, matrix size = 256 × 128) and used for voxel selection. A single voxel ^1H PRESS spectrum was acquired in a 3×3x3 mm^3 voxel (TR = 3000 ms, TE1 = 12.68 ms and TE2 = 10.01 ms, number of averages = 128, complex points = 4096, spectral width = 4000 Hz and acquisition time of 6 min 24 sec). Water suppression was achieved using the VAPOR sequence. An unsuppressed water spectrum was acquired (8 averages) as a chemical shift and concentration reference. One week following initiation of treatment, ^1H MR spectra were acquired again. Spectra were processed using Mnova Lite 5.2.5 software (Mestrelab Research). Free induction decays were processed by 10 Hz apodization followed by Fourier transformation. Spectra were phased and chemical shift and baseline correction performed prior to fitting of the water (4.7 ppm), tCho (3.2 ppm), PUFA (2.8 ppm), and lipid (1.3 ppm) resonances. The metabolite/water ratio was determined and the percent change was determined as [post-treatment ratio – pre-treatment ratio] *100%/pre-treatment ratio.\nA cohort of 15 mice was inoculated with MDA-MB-231 cells. When a volume of 300 μL was reached, tumors were scanned using MRS. Tumor volumes were measured using T2-weighted images. The animals were separated into treatment groups, and for 5 consecutive days each group was injected i.p. with 100 μL of DMSO/saline vehicle (n = 5), 2 mg/kg MN58b (n = 4), or 4 mg/kg JAS239 (n = 3). Initial cohort sizes were 5 per condition, but some animals had to be removed from the study because the treatment was so effective that we were unable to place voxels within post-treatment tumors that were too small. Follow-up MRI/MRS scanning was performed on day 7 to assess tumor growth inhibition and changes in metabolite levels. After imaging, blood was collected into heparin-coated tubes by cardiac puncture. Resected tumors were embedded in Optimum Cryo-Temperature (Sakura Finetek), flash-frozen in liquid nitrogen, and stored at –80 °C. Blood samples were submitted to the Ryan Veterinary Clinic Diagnostic labs for toxicology."}, "4175-Luc+ tumors": {"test_system": "4175-Luc+ tumors", "experiment": "Tumor growth inhibition", "type": "in vivo, mouse", "conditions": "5-day i.p. regimen from day 3 after inoculation; MN58b 2 mg/kg/day, JAS239 4 mg/kg/day", "protocol": "All animal studies were approved by the Institutional Animal Care and Use Committee of the University of Pennsylvania. Six week old female athymic nude Foxn1^nu/nu mice (National Cancer Institute) were housed in a temperature-controlled environment with 12 h light/dark cycle. Anesthesia was induced using 2% isoflurane in oxygen for all experiments. For MCF7 tumors, mice were supplemented with 60-day release 0.36 mg 17β-estradiol tablets (Innovative Research of America) using a trochar in the nape of the neck. After 1 week, 4 × 10^6 cells in Matrigel (BD Biosciences) were inoculated into the left (CK+) and contralateral (EV) mammary fat pads. Subcutaneous xenografts, including those analyzed in MRI/MRS studies, were grown on the shoulder to allow for cloaking of the kidneys during optical imaging studies. Tumor growth was determined via caliper measurement of three orthogonal dimensions and volume calculated as length * width * height * π/6.\nA cohort of 15 mice was inoculated with 4175-Luc+ tumors. Beginning 3 days post-inoculation, animals received a 100-μL i.p. injection of either control DMSO/saline, 2 mg/kg MN58b or 4 mg/kg JAS239 in DMSO/saline daily for 5 days. Tumor volumes were assessed by caliper measurement."}, "ChoKα": {"biological_target": "ChoKα (Homo sapiens, UniProt P35790)", "sequence (P35790 whole entry)": "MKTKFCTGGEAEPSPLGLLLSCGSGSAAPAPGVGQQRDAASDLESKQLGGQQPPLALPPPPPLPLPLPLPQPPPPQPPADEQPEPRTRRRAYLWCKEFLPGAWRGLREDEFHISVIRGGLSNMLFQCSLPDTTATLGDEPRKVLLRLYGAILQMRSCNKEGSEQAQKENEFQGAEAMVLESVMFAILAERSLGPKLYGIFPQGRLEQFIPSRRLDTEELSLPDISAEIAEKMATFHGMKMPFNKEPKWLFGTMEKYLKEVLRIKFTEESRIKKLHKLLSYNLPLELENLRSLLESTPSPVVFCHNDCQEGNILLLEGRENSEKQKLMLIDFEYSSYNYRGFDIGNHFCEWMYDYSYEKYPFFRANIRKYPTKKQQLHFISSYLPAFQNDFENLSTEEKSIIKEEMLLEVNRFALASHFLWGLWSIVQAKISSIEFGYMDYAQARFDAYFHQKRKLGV", "experiment": "Confocal microscopy colocalization of JAS239 with anti-ChoKα antibody in fixed MDA-MB-231 cells", "type": "cell-based", "set-up": "endogenous in cells; host or cells: MDA-MB-231", "conditions": "cells pre-treated with ChoKα antibody", "protocol": "MDA-MB-231 cells plated on sterile glass coverslips were fixed in 4% paraformaldehyde, permeabilized in 0.2% Triton X-100, and blocked in 1% BSA. Staining with 0 or 200 μM JAS239 was performed 30 min prior or 1 h after application of rabbit anti-human ChoKα antibody (ab38290; Abcam, 1:1000 dilution). Coverslips were then stained with goat anti-rabbit antibody conjugated to Texas Red (Vector Laboratories; TI-1000, 1:500), dehydrated, and mounted with VectaShield (Vector Laboratories). Confocal micrographs were acquired on a Zeiss LSM 510META NLC using excitation (Ex.) 543 nm and emission (Em.) 565–615 nm for Texas Red and Ex. 633 nm and Em. > 650 nm for JAS239. The Coloc 2 FIJI software plug-in was used to assess colocalization of the anti-ChoKα antibody with JAS239 by calculating Pearson's Correlation Coefficients and Manders’ Colocalization Coefficients for at least 3 separate ROIs. […]\nstrongly correlated with ChoKα, unless fixed cells are pre-incubated with ChoKα antibody (Ab). (B) Manders’ Colocalization Coefficients calculated for the Texas-Red channel confirm that the majority of ChoKα is bound by JAS239 when JAS239 is present. (C) Manders’ Colocalization Coefficients calculated for the JAS239 channel indicate that the majority of JAS239 that is present intracellularly is co-distributed with ChoKα. Values represent ± SEM for 3 separate fields of view. […]"}, "[1]": {"test_system": "MDA-MB-231 tumor xenografts", "set-up": "method as in PMID 16397258", "conditions": "4 mg/kg; cited from earlier work"}}, "data": [{"compound": "CC1(C)C(=C/C=C/C=C/C=C/C2=[N+](CCO)c3ccccc3C2(C)C)N(CCO)c2ccccc21", "note": "[JAS239]", "values": [{"measurement": "Change in tumor tCho compared to control (MRS)", "setting": "MDA-MB-231 tumors", "value": "reduce tCho to noise levels"}, {"measurement": "Tumor volume between pre- and post-treatment scans (MRI)", "setting": "MDA-MB-231 tumors", "value": "static"}, {"measurement": "PUFA resonances (measure of tumor apoptosis)", "setting": "MDA-MB-231 tumors", "value": "increased"}, {"measurement": "Tumor volume compared to control animals", "setting": "4175-Luc+ tumors", "value": "significantly smaller tumor volumes"}, {"measurement": "JAS239 retention after ChoKα antibody pre-treatment", "setting": "ChoKα", "value": "marked reduction in JAS239 retention"}]}, {"compound": "MN58b [reference compound]", "values": [{"measurement": "Change in tumor tCho compared to control (MRS)", "setting": "MDA-MB-231 tumors", "value": "Significant reductions in tCho"}, {"measurement": "Tumor volume between pre- and post-treatment scans (MRI)", "setting": "MDA-MB-231 tumors", "value": "static"}, {"measurement": "PUFA resonances (measure of tumor apoptosis)", "setting": "MDA-MB-231 tumors", "value": "increased"}, {"measurement": "Tumor volume compared to control animals", "setting": "4175-Luc+ tumors", "value": "significantly smaller tumor volumes"}, {"measurement": "PC levels in tumor xenografts", "setting": "[1]", "value": "lower PC levels"}]}]}
